Measured values taken from patent US20240336657A1, “G-ALPHA-S PEPTIDE INHIBITORS AND USES THEREOF” (The Regents of the University of California, priority 2021, published 2024).
Positions of bridges follow the written chain, without caps; N, C: chain ends. Non-standard residues stand in square brackets, D forms with d. Residues, ends and D or L forms follow the SMILES beside them.

B1: GN13 (peptide)
peptide: {CH2CO}-[dY]FESVYAIWGTLCG-NH2
modifications: thioether N-13
SMILES: CC[C@H](C)[C@@H]1NC(=O)[C@H](C)NC(=O)[C@H](Cc2ccc(O)cc2)NC(=O)[C@H](C(C)C)NC(=O)[C@H](CO)NC(=O)[C@H](CCC(=O)O)NC(=O)[C@H](Cc2ccccc2)NC(=O)[C@@H](Cc2ccc(O)cc2)NC(=O)CSC[C@@H](C(=O)NCC(N)=O)NC(=O)[C@H](CC(C)C)NC(=O)[C@H]([C@@H](C)O)NC(=O)CNC(=O)[C@H](Cc2c[nH]c3ccccc23)NC1=O
notes: Residue numbers in the text (E3, V5, I8, W9, T11) fit this order; In the RaPID selections the peptide carried a GSGSGS linker, puromycin and its mRNA/cDNA; also called cyclic peptide GN13

Key:
[1] = molecular target: Gαs S275L (Homo sapiens, UniProt P63092, S275L); assay: Gαs inhibition with mutation in the cyclic peptide binding site (FIGS. 6A-6B); type: biochemical; details: in the assay tested
Sequence of Gαs S275L (P63092 whole entry S275L): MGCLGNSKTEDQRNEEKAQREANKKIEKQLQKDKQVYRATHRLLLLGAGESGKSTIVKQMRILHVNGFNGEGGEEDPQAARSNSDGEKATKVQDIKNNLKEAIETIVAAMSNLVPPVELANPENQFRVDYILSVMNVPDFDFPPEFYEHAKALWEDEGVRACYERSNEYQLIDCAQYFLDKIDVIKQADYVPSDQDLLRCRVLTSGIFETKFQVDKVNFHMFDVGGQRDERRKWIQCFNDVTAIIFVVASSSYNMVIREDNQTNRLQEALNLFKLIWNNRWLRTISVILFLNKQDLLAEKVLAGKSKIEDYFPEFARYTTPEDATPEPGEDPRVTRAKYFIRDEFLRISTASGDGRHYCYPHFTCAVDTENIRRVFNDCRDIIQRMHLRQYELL

[2] = molecular target: R201H Gαs (Homo sapiens, UniProt P63092, R201H); assay: Gαs mutant inhibition in the presence of Gβγ (FIGS. 6A-6B); type: biochemical
Sequence of R201H Gαs (P63092 whole entry R201H): as the sequence (P63092 whole entry S275L) above, with R201H, L275S counted along it

[3] = molecular target: R201C Gαs/GDP (Homo sapiens, UniProt P63092, R201C); assay: Binding to R201C Gαs/GDP (FIGS. 7A-7B)
Sequence of R201C Gαs/GDP (P63092 whole entry R201C): as the sequence (P63092 whole entry S275L) above, with R201C, L275S counted along it

[4] = molecular target: WT Gαs (Homo sapiens, UniProt P63092); assay: Gαs inhibition in the presence of Gβγ (FIG. 4, FIGS. 6A-6B); type: biochemical
Sequence of WT Gαs (P63092 whole entry): as the sequence (P63092 whole entry S275L) above, with L275S counted along it

[5] = molecular target: R201C Gαs (Homo sapiens, UniProt P63092, R201C); assay: Gαs mutant inhibition (FIGS. 1A-1B, FIGS. 6A-6B); type: biochemical; details: in the presence of Gβγ
Sequence of R201C Gαs (P63092 whole entry R201C): as the sequence (P63092 whole entry S275L) above, with R201C, L275S counted along it

[6] = molecular target: WT Gαs (purified, adenylyl cyclase activity assay) (UniProt P63092-2 7-380); assay: cell-based or functional assay
Sequence of WT Gαs (purified, adenylyl cyclase activity assay) (P63092 other isoform, or with tags, fused parts or gaps limits assumed): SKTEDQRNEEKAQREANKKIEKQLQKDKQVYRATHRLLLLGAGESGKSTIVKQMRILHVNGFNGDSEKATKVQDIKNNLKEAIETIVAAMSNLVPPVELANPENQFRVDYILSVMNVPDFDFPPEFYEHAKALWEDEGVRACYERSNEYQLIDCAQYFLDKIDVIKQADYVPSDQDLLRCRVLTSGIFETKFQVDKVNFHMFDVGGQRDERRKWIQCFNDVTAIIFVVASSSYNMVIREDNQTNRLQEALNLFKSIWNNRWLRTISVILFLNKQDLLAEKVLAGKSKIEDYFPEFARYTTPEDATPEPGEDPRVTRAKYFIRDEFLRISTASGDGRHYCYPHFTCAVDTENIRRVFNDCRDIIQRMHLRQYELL

[7] = molecular target: T1, Biotinylated His/Avi-tagged Gαs used in the RaPID selection, GppNHp-bound (human, UniProt P63092 7-394, biotin on the Avi tag (BirA co-expressed)); assay: RaPID comparison selection: peptide-mRNA-cDNA complexes on Gαs-immobilized streptavidin beads, qPCR and sequencing
T1 construct: Immobilized on streptavidin magnetic beads
T1 sequence (P63092 other isoform, or with tags, fused parts or gaps limits assumed): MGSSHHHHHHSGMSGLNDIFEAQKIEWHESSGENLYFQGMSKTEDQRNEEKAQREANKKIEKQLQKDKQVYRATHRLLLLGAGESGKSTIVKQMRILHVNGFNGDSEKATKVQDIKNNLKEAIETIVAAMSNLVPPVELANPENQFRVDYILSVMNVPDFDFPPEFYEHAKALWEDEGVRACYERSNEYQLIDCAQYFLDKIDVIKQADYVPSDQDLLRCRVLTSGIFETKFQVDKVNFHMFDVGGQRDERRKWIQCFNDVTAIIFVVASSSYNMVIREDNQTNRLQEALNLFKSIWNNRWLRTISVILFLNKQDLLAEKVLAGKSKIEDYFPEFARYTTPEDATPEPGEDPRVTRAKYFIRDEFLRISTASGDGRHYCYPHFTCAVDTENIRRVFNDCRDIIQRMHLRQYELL

[8] = molecular target: WT Gαs in HEK293 cell membranes, P63092; assay: cell-based or functional assay
Sequence of WT Gαs in HEK293 cell membranes, P63092 (P63092 2-394): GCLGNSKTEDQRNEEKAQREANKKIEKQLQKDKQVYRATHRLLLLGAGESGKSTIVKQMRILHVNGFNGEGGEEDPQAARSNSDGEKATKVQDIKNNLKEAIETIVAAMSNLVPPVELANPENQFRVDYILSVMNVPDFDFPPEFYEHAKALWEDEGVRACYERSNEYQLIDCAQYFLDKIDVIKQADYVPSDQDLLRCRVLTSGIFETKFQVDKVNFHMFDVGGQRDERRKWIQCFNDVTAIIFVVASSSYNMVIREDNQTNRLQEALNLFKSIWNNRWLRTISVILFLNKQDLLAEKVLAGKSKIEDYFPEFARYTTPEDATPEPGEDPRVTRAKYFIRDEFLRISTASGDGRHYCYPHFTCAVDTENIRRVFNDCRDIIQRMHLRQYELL

[9] = molecular target: T2, Biotinylated Avi-tagged Gαi1 (residues 2-354 of human Gαi1), GDP-bound (human, UniProt P63096 2-354, biotin on the Avi tag (BirA)); assay: BLI, biotinylated Gα on streptavidin biosensors
T2 construct: Loaded with GDP; also called avi-Gαi (FL, WT)
T2 sequence (P63096 other isoform, or with tags, fused parts or gaps limits assumed): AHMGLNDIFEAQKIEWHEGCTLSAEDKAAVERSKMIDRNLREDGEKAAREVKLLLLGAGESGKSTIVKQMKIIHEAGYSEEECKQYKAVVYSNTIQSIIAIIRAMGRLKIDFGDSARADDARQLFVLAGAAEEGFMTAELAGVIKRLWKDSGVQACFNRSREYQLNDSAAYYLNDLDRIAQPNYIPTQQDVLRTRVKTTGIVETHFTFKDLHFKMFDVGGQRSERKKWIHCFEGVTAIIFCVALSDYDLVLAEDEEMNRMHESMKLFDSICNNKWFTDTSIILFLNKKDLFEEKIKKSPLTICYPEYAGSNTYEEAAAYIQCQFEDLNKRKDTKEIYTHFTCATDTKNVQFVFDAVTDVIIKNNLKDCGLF
Protocol: (§1) BLI experiments were performed using an OctetRED384 instrument from ForteBio. All experiments were performed at 25° C. using BLI buffer (10 mM HEPES pH 7.4, 150 mM NaCl, 1 mM MgCl₂, 0.05% Tween-20, 0.1% DMSO, 0.2 mM GppNHp or GDP). Cyclic peptides were diluted to a series of concentrations in BLI buffer plus 10 μM Biotin. Assays were conducted in Greiner 384well, black, flat bottom polypropylene plates containing the protein solutions, BLI buffer plus 10 μM Biotin for dissociation, and serial dilutions of cyclic peptides to be tested.
(§2) Biotinylated proteins were immobilized on Streptavidin biosensors by dipping sensors into plate wells containing protein solutions at a concentration of 100-150 nM. Protein loading is around 2-3 nm. Sensors loaded with proteins were moved and dipped into wells with BLI buffer plus 10 μM Biotin to block unlabeled Streptavidin. […] Association and dissociation times were carefully determined to ensure full association and dissociation.
(§3) Raw kinetic data collected were processed with the Data Analysis software provided by the manufacturer using single reference subtraction in which buffer-only reference was subtracted (For GN13 analysis). […] The resulting data were analyzed based on a 1:1 binding model from which kₒₙ and koff values were obtained and then Kd values were calculated.

[10] = molecular target: T3, Biotinylated Avi-tagged Gαi1 (residues 2-354 of human Gαi1), GppNHp-bound (human, UniProt P63096 2-354, biotin on the Avi tag (BirA)); assay: BLI, biotinylated Gα on streptavidin biosensors
T3 construct: Loaded with GppNHp; Same polypeptide as m9, other nucleotide state
T3 sequence (P63096 other isoform, or with tags, fused parts or gaps limits assumed): as above
Protocol: as §1, §2, §3

Molecule	inhibition with S275L mutation in the cyclic peptide binding site [1]	inhibition of R201H Gαs [2]	binding to R201C Gαs/GDP [3]	inhibition of WT Gαs [4]	inhibition of R201C Gαs [5]	IC50, inhibition of Gαs-mediated adenylyl cyclase activation (cAMP production, reconstituted Gαs activity assay) [6] [µM]	fold selectivity for GppNHp-bound over GDP-bound Gαs [7] [fold]	IC50, inhibition of ISO-stimulated Gαs activity (cAMP) in HEK293 cell membranes [8] [µM]	binding result [9]	binding result [10]
CC[C@H](C)[C@@H]1NC(=O)[C@H](Cc2c[nH]cn2)NC(=O)[C@H](Cc2ccc(O)cc2)NC(=O)[C@H]([C@@H](C)CC)NC(=O)[C@H](CO)NC(=O)[C@H](CCC(N)=O)NC(=O)[C@H](Cc2ccccc2)NC(=O)[C@@H](Cc2ccc(O)cc2)NC(=O)CSC[C@@H](C(N)=O)NC(=O)[C@H](CC(C)C)NC(=O)[C@H](CCC(=O)O)NC(=O)CNC(=O)[C@H](Cc2c[nH]c3ccccc23)NC1=O [GR6] ({CH2CO}-[dY]FQSIYHIWGELC-NH2; thioether N-13)	blocked	inhibits	increased binding	potently inhibits	inhibits	–	–	–	–	–
B1	–	–	–	–	–	4.15	> 100	12.2	no binding	no binding
